Source: publication PMC8991960, “A Bivalent Activatable Fluorescent Probe for Screening and Intravital Imaging of Chemotherapy‐Induced Cancer Cell Death” (Angewandte Chemie (International Ed. in English), 2021)

B1: Annexin V‐AF647: a 36 kDa protein marker of PtdSer in the presence of Ca2+ ions (protein, UniProt P08758 2-320, looked up)
Annexin A5: AQVLRGTVTDFPGFDERADAETLRKAMKGLGTDEESILTLLTSRSNAQRQEISAAFKTLFGRDLLDDLKSELTGKFEKLIVALMKPSRLYDAYELKHALKGAGTNEKVLTEIIASRTPEELRAIKQVYEEEYGSSLEDDVVGDTSGYYQRMLVVLLQANRDPDAGIDEAQVEQDAQALFQAGELKWGTDEEKFITIFGTRSVSHLRKVFDKYMTISGFQIEETIDRETSGNLEQLLLAVVKSIRSIPAYLAETLYYAMKGAGTDDHTLIRVMVSRSEIDLFNIRKEFRKNFATSLYSMIKGDTSGDYKKALLLLCGEDD
modifications: Alexa Fluor 647 label
notes: a 36 kDa protein marker of PtdSer in the presence of Ca2+ ions

Legend:
8 cancer cell lines = assay: Classification of drugs by Apotracker Red (apoptosis) and CellTrace Violet (proliferation) staining; assay type: cell-based; conditions: 24 h treatment; for Drug group by Apotracker Red (apoptosis) and CV (proliferation) staining: 8 cell lines, single-dose screen; for Effect on cell proliferation (CellTrace Violet): CellTrace Violet 1 µM, Figure S8
Experimental: To corroborate the versatility of Apotracker Red, we built a screening platform including a total of 8 cancer cell lines of variable origin and pathogenesis: breast (MCF7, MDA‐MB231 and MMTV‐PyMT (mouse mammary tumour virus‐polyoma middle tumour‐antigen)[23]), lung (A549), prostate (PC3 and LnCap), blood cells (Jurkat) and colon (HT29). All cell lines were cultured under standard conditions and seeded with the fluorescent proliferation marker CellTrace^TM Violet (CV) in 96‐well plates (10–20×10^3 cells/well) for high‐throughput flow cytometry. After drug treatment (i.e., drug addition plus 24 h incubation), Apotracker Red was incubated for 10 min and fluorescence readings were directly acquired without any additional processing steps (Figure 3 a). […] Using this platform, we tested a collection of FDA‐approved drugs in all cancer cell lines and compared their ability to induce apoptosis using Apotracker Red as the reporter. Specifically, we included DNA alkylation agents (e.g., cyclophosphamide, cisplatin, 5‐fluorouracil, gemcitabine, temozolomide), proteasomal and mitotic inhibitors (e.g., bortezomib, docetaxel, paclitaxel) and antagonists of specific proteins (e.g., dexamethasone, tamoxifen; Figure 3 b).
(§1) First, all drugs were tested in the 8 different cell lines to determine the percentages of Apotracker Red‐stained apoptotic cells compared to no treatment (Figure 3 c; Figure S8). […] All 5 drugs were tested at multiple concentrations (from 1 to 100 μM) and with incubation times up to 48 h to examine whether drugs could block cell proliferation at late stages (Figures S9–S13).
Figure S8. Heatmap of relative inhibition of cell proliferation (as indicated by staining of CellTraceTM Violet) after treatment of cancer cell lines with different drugs. Data presented as an average of 3 independent experiments. Cells were stained on day 0 with CellTraceTM Violet (1 µM) and mean fluorescence intensities were determined on the 5L LSR after 24 h of treatment with the different drugs.
(1 picture or pasted object on this page, not shown here) […]
(§2) Cell culture. MCF-7, A549, LnCap, MDA-MB-231, Jurkat T cells and PC3 cells were obtained from American Type Culture Collection (ATCC). HT29 cells were purchased from Merck (S i g m a Aldrich, UK). Mouse Mammary Tumour Virus –Polyoma Middle T antigen (MMTV -PyMT) cells were provided by the lab of Mikala Egeblad (CSHL, US). MMTV-PyMT, MCF-7, LnCap, MDA-MB-231 and Jurkat T cells were cultured in Roswell Park Memorial Institute (RPMI) 1640 Medium supplemented with 10% fetal bovine serum (FBS) , 100 U mL-1 penicillin and 0.1 mg mL-1 streptomycin. A549 and PC3 cells were cultured in Dublecco’s modified Eagle’s medium (DMEM) supplemented with 10% fetal bovine serum (FBS), 100 U mL-1 penicillin and 0.1 mg […]
(§3) Flow cytometry drug screen.

MDA-MB-231 cells = assay: Dose-dependency study with Apotracker Red; assay type: cell-based, human; conditions: 1 to 100 µM, 48 h, Apotracker Red 150 nM
Experimental: as §1
Edinburgh. Human peripheral blood neutrophils were isolated as previously described.[3] Briefly, whole blood was drawn into tubes containing anti -coagulant 3.6% sodium citrate (final concentration: 0.4% (w/v)) and centrifuged at 350 g for 20 min at r.t. with lowest acceleration and no brake. Platelet-rich plasma was rem oved, and leukocytes separated from erythrocytes by 0.6% dextran sedimentation in saline for 30 min at r.t. The upper layer was further fractionated using an isotonic discontinuous Percoll density gradient. Neutrophils were harvested from the 63% and 72.9% interface and cultured in Iscove’s Modified Dulbecco’s Medium (IMDM, Gibco) in 5% h um an A B se rum fo r 1 8 h at 37°C, 5% CO2 to in du ce spontaneous […]
as §2, §3

[1] = tested on: breast cancer cells (MMTV-PyMT, MDA-MB231, MCF7); assay: Dose-dependency study with Apotracker Red and CellTrace Violet; assay type: cell-based, mouse and human; conditions: 1 to 100 µM, 48 h, Apotracker Red 150 nM; 3 independent experiments
Experimental: as §1, with “S8). […] From this screen, we decided to select 5 drugs with potent pro‐apoptotic response in breast cancer, the most diagnosed cancer worldwide.[25] […] From group 2, we selected cyclophosphamide, tamoxifen, and 5‐fluorouracil as pro‐apoptotic molecules.” for “S8).”
Figure 4 Apotracker Red detects dose‐dependent chemotherapeutic‐induced apoptosis in mouse and human breast cancer cell lines. Cells were plated with 1 μM CV, treated with increasing concentrations (0, 1, 3, 10, 30 and 100 μM) of selected drugs for 48 h, and stained with Apotracker Red (150 nM) before data acquisition. Drugs: tamoxifen (beige), cisplatin (black), 5‐fluorouracil (green), gemcitabine (pink) and cyclophosphamide (red). Data presented as mean±SEM of 3 independent experiments.
Figure S9. Flow cytometry analysis of cisplatin in different breast cancer cell lines.
Representative flow cytometric plots (from three independent experiments) of MMTV-PyMT cells (a), MDA-MB231 cells (b) and MCF7 cells (c) after treatment with increasing concentrations of cisplatin for 48 h. Cells were stained on day 0 with CellTraceTM Violet (1 µ M) and with Apotracker Red (150 nM) before data acquisition.
(1 picture or pasted object on this page, not shown here)
Edinburgh. Human peripheral blood neutrophils were isolated as previously described.[3] […]
were centrifuged (300 g, 5 min, r.t.), washed once with PBS before addition of 0.05% Trypsin, 0.02% ethylenediaminetetraacetic acid (EDTA) in Hank’s balanced salt solution (HBSS) and incubation at 37°C for 5 min. […] Histograms and mean fluorescence intensities of […]

[2] = tested on: apoptotic cells (primary human neutrophils, Jurkat T cells); assay: Divalent cation-independent staining of apoptotic cells; assay type: cell-based; conditions: 2.5 mM EDTA; Apotracker Red 150 nM, Annexin V-AF647 25 nM

| Molecule | Drug group by Apotracker Red (apoptosis) and CV (proliferation) staining (8 cancer cell lines) | Apotracker Red staining in MDA-MB-231 cells, dose-dependency study (MDA-MB-231 cells) | other results |
| --- | --- | --- | --- |
| O=c1[nH]cc(F)c(=O)[nH]1 [5-fluorouracil] | induced apoptosis with little reduction of cell proliferation | weaker Apotracker Red‐staining | – |
| CC(C)C[C@H](NC(=O)[C@H](Cc1ccccc1)NC(=O)c1cnccn1)B(O)O [bortezomib] | induced apoptosis with little reduction of cell proliferation | – | Effect on cell proliferation (CellTrace Violet) (8 cancer cell lines): very minor effects on cell proliferation |
| O=P1(N(CCCl)CCCl)NCCCO1 (stereo not drawn) [cyclophosphamide] | – | weaker Apotracker Red‐staining | – |
| C[C@@H]1C[C@H]2[C@@H]3CCC4=CC(=O)C=C[C@]4(C)[C@@]3(F)[C@@H](O)C[C@]2(C)[C@@]1(O)C(=O)CO [dexamethasone] | had no impact on proliferation or apoptosis | – | – |
| CC(=O)O[C@@]12CO[C@@H]1C[C@H](O)[C@@]1(C)C(=O)[C@H](O)C3=C(C)[C@@H](OC(=O)[C@H](O)[C@@H](NC(=O)OC(C)(C)C)c4ccccc4)C[C@@](O)([C@@H](OC(=O)c4ccccc4)[C@H]21)C3(C)C [docetaxel] | inhibited cell proliferation but showed little or no induction of apoptosis | – | – |
| Nc1ccn([C@@H]2O[C@H](CO)[C@@H](O)C2(F)F)c(=O)n1 [gemcitabine] | induced apoptosis and decreased cell proliferation | weaker Apotracker Red‐staining | – |
| CC(=O)O[C@H]1C(=O)[C@@]2(C)[C@H]([C@H](OC(=O)c3ccccc3)[C@]3(O)C[C@H](OC(=O)[C@H](O)[C@@H](NC(=O)c4ccccc4)c4ccccc4)C(C)=C1C3(C)C)[C@]1(OC(C)=O)CO[C@@H]1C[C@@H]2O [paclitaxel] | induced apoptosis with little reduction of cell proliferation | – | Effect on cell proliferation (CellTrace Violet) (8 cancer cell lines): very minor effects on cell proliferation |
| CC/C(=C(\c1ccccc1)c1ccc(OCCN(C)C)cc1)c1ccccc1 [tamoxifen] | induced apoptosis with little reduction of cell proliferation | – | Percentages of Apotracker Red staining, dose-dependency study [1]: highest percentages of Apotracker Red staining across all breast cancer cells |
| Cn1nnc2c(C(N)=O)ncn2c1=O [temozolomide] | inhibited cell proliferation but showed little or no induction of apoptosis | – | – |
| B1 | – | – | Staining of apoptotic cells after chelation of divalent cations [2]: failed to bind |
